Source: US8618067B2, “L-sugar colon cleansing agent and uses thereof” (Aptalis Pharma US, Inc., priority 2009, dated 2013)
Where “and” joins values, the source holds several entries; their conditions need not be identical. Identical values can stand only once.

Legend:
[1] = Dissolution of solid L-glucose forms in water with consumer-like stirring; format: physicochemical; details: for Time of stirring until sample fully dissolved: 53 g in 240 mL doubly distilled water
Description: Each sample comprises approximately an equivalent amount of L-glucose on a weight basis. Carefully, to avoid agitation and mixing, doubly distilled water (240 mL) is added to each beaker. In one example, the solution is stirred immediately after addition of water. […] The stiffing was conducted in a manner duplicating the way a consumer is expected to stir a sample prior to use.

colon [2] = experiment: Open-label, historically controlled, single-dose study of L-glucose as colon-cleansing agent before colonoscopy (Raymer et al.); format: in vivo, human; details: 24-g single dose; equivalent of the 80% success rating
Description: For example, an open-label, historically controlled, single-dose study of a 24-g dose of L-glucose was conducted to determine the safety and effectiveness of L-glucose as a colon-cleansing agent before colonoscopy (Raymer et al., “An open-label trial of L-glucose as a colon-cleansing agent before colonoscopy,” Gastrointest Endosc 58(1):30-5, 2003).

colon [3] = experiment: Comparative Example 1: multicenter, double-blind, dose-range-finding study of L-glucose as colon-cleansing agent before colonoscopy; format: in vivo, human; details: single doses 12 g, 16 g, 20 g, 24 g; scale of Hsu et al.
Description: A multicenter, double-blind, dose-range-finding study to evaluate the effectiveness and safety of L-glucose as a colon-cleansing agent before colonoscopy was conducted. Doses used in this study were 12 g, 16 g, 20 g, and 24 g. The assessment of the preparations was based on the scale used in Hsu et al., “Meta-analysis and cost comparison of polyethylene glycol lavage versus sodium phosphate for colonoscopy preparation,” Gastrointestinal Endoscopy 48(3):276-282, 1998, wherein small bits of fecal material in the colon were allowed in an “Excellent” score.

colon [4] = experiment: Comparative Example 2: randomized, single-blind study of L-glucose as bowel preparation before colonoscopy (GPA scale); format: in vivo, human
Description: (§1) Global Preparation Assessment
(§2) Excellent=clean colon or small volume of clear liquid
(§3) Good=moderate to large volume of clear to semiclear liquid
(§4) Fair=some semisolid stool suctioned or washed away
(§5) Poor=semisolid or solid stool unable to be suctioned or washed away
A randomized, single-blind study designed to determine the clinical effectiveness of L-glucose as a bowel preparation before colonoscopy was performed. Three dose regimens were evaluated: 24 g in the evening only, 30 g in the evening only, and 24 g in the evening followed by 12 g in the morning (36 g total). Here, Applicant's GPA scale described herein was used to evaluate the preparations. […] Clinical efficacy (defined as a combination of “excellent” and “good” assessments) for the split-dose schedule was 19/27 (70%), as compared to 7/31 (23%) in the single-dose schedule (p<0.001).
As noted above in the description of Applicant's GPA scale, the criteria for determining whether a preparation was deemed “excellent” or “good” was respectively defined as “clean colon or small volume of clear liquid” or “moderate to large volume of clear to semi-clear liquid.” These criteria are more stringent than the rating system used by Raymer et al. discussed supra since Raymer's “excellent” and “good” ratings were respectively defined as “no more than small bits of adherent fecal fluid” and “small amounts of feces or fluid not interfering with the examination.” Thus, Raymer's “excellent” rating would likely not qualify as even a “good” rating in Applicant's GPA scale.

colon [5] = experiment: Example 3: open-label, 2-site dose-escalating split-dose study of L-glucose before colonoscopy (GPA and RSS); format: in vivo, human
From the text: Applicants have relied upon a combination of a categorical, 4-point scale and a numerical, segmental scoring system to assess bowel cleansing quality (Balaban et al. “Low volume bowel preparation for colonoscopy: randomized, endoscopist-blinded trial of liquid sodium phosphate versus tablet sodium phosphate,” Am J Gastroenterol 98:827-32, 2003). The basic 4-point scale, known as the Global Preparation Assessment (GPA), is essentially the same as the original scale used in the first randomized controlled trial of PHOSPHO-SODA™ as a bowel cleansing agent published in 1990 by Vanner, et al. (“A randomized prospective trial comparing oral sodium phosphate with standard polyethylene glycol-based lavage solution (Golytely) in the preparation of patients for colonoscopy,” Am J Gastroenterol 85:422-7, 1990). The numerical scoring system, known as the Residual Stool Score (RSS), is a continuously variable, averaged segmental scoring instrument that assesses both the amount and consistency of residual stool before suctioning (a measure of the cathartic activity of the bowel cleansing regimen) as well as the percent of the bowel wall seen after washing and cleansing (a measure of the ultimate endpoint for bowel preparation success). The two scales are shown below.
as §1, §2, §3, §4, §5
This open-label, 2-site study employed a dose-escalating design using 3 split doses of L-glucose (24 g/24 g, 36 g/36 g, and 48 g/48 g). The doses were administered the night before and the morning of a scheduled colonoscopy. The study was conducted in Phase I facilities to control for administration of L-glucose and adherence to the dietary and hydration regimen.
Three dose cohorts of 24 subjects were evenly divided between males and females for each cohort. Subjects who were scheduled to undergo an elective colonoscopy, who met the study entrance criteria, and who gave their consent to participate in the study were enrolled. […] Each subject observed a strict diet and hydration regimen as part of the study medication administration.
The site pharmacist prepared the L-glucose preparation based on the study medication preparation manual provided. Each subject, regardless of dose cohort, received the dose in 8 ounces of water, which was to be consumed within a 10-minute period. Dose cohorts proceeded in a dose-escalating fashion starting with the lowest dose (24 g/24 g) and escalated according to a dose escalation decision tree.
The physician performing the colonoscopy utilized Applicant's GPA scale to evaluate the quality of bowel preparation as before suctioning and washing.
The Residual Stool Score (RSS) described above was also used to assess bowel cleansing in each of the 5 segments of the bowel (rectum, descending colon, transverse colon, ascending colon, and cecum). As noted, assessments included the amount of stool present, the consistency of the stool, and the estimated percentage of the bowel wall visualized in each segment.
For reasons of inadequate bowel preparation, sections of the bowel that were not directly examined during colonoscopy were rated as “poor” on all three measures listed previously.
A total of 24 subjects were enrolled into each of the three dose cohorts. All 72 subjects were included in the intent-to-treat (ITT) and safety populations.

[6] = cited from earlier work
colon [7] = details: 24-g single dose; Raymer scale; cited from earlier work
[8] = cited from earlier work; remark: listed apart in the source
[9] = 48 g/48 g dose compared with lower split doses

O.O=C[C@@H](O)[C@H](O)[C@@H](O)[C@@H](O)CO [L-glucose monohydrate]
Observations: clusters or clumping of solid ([1]; 5 min. delay): Several clusters of solid at 1 min. Final solution | Time of stirring until sample fully dissolved ([1]; 5 min. delay before stirring, listed as L- glucose monohydrate^1, monohydrate): Sample fully dissolved after 2.5 min. of stirring. | Time of stirring until sample fully dissolved ([1]; 5 min. delay before stirring, listed as L- glucose monohydrate^2, monohydrate): Fully dissolved after 1 min. of stirring. Final | Observations: appearance of final solution ([1]; 5 min. delay, listed as L- glucose monohydrate^2, monohydrate): solution was clear, colorless and homogeneous | Observations: clusters or clumping of solid ([1]; No delay): Several clusters of solid at 1 min. Final solution | Time of stirring until sample fully dissolved ([1]; No delay (stirred immediately), listed as L- glucose monohydrate^1, monohydrate): Sample fully dissolved after 2.5 min. of stirring. | Time of stirring until sample fully dissolved ([1]; No delay (stirred immediately), listed as L- glucose monohydrate^2, monohydrate): Fully dissolved after 2 min. of stirring. Final | Observations: appearance of final solution ([1]; No delay, listed as L- glucose monohydrate^2, monohydrate): solution was clear, colorless and homogeneous

O=C[C@@H](O)[C@H](O)[C@@H](O)[C@@H](O)CO [L-glucose]
Failure rating (colon [2]): 20% | Acceptability as a colonic cleanser (colon [3]): not acceptable | Outcome of the evening-only dose arms (colon [4]; 24 g and 30 g evening only): suspended for lack of effectiveness | Changes in laboratory test results (colon [4]; in vivo): no clinically significant changes | Commonly reported adverse events (colon [4]; in vivo): generally absent or mild | Overall tolerance to the bowel preparation (colon [4]; in vivo): good or very good | Subjects with GPA rated Excellent (clean colon or small volume of clear liquid) (colon [5]; 24 g/24 g cohort): 12 (50.0%) subjects (%) and 12 (50.0) subjects (%) | Subjects with GPA rated Fair (some semisolid stool suctioned or washed away) (colon [5]; 24 g/24 g cohort): 5 (20.8) subjects (%) | Subjects with GPA rated Good (moderate to large volume of clear to semiclear liquid) (colon [5]; 24 g/24 g cohort): 7 (29.2) subjects (%) | Subjects with GPA rated Poor (semisolid or solid stool unable to be suctioned or washed away) (colon [5]; 24 g/24 g cohort): 0 (0.0) subjects (%) | Subjects with GPA rated Excellent (clean colon or small volume of clear liquid) (colon [5]; 36 g/36 g cohort): 14 (58.3%) subjects (%) and 14 (58.3) subjects (%) | Subjects with GPA rated Fair (some semisolid stool suctioned or washed away) (colon [5]; 36 g/36 g cohort): 2 (8.3) subjects (%) | Subjects with GPA rated Good (moderate to large volume of clear to semiclear liquid) (colon [5]; 36 g/36 g cohort): 7 (29.2) subjects (%) | Subjects with GPA rated Poor (semisolid or solid stool unable to be suctioned or washed away) (colon [5]; 36 g/36 g cohort): 1 (4.2%) subjects (%) and 1 (4.2) subjects (%) | Subjects with GPA rated Excellent (clean colon or small volume of clear liquid) (colon [5]; 48 g/48 g cohort): 22 (91.7%) subjects (%) and 22 (91.7) subjects (%) | Subjects with GPA rated Fair (some semisolid stool suctioned or washed away) (colon [5]; 48 g/48 g cohort): 1 (4.2) subjects (%) | Subjects with GPA rated Good (moderate to large volume of clear to semiclear liquid) (colon [5]; 48 g/48 g cohort): 1 (4.2) subjects (%) | Subjects with GPA rated Poor (semisolid or solid stool unable to be suctioned or washed away) (colon [5]; 48 g/48 g cohort): 0 (0.0) subjects (%) | Robustness of bowel cleansing (colon [5]; [9]): more robust bowel cleansing | Time to the first watery bowel movement (colon [5]; [9]): shortest time to the first watery bowel movement | Subjects who had a complete colonoscopy (colon [5]; Site 01, all dose cohorts): 30 (96.8%) subjects (%) | Subjects with GPA rated poor (colon [5]; Site 01, all dose cohorts): 1 (3.2%) subjects (%) | Subjects who had a complete colonoscopy (colon [5]; Site 02, all dose cohorts): 39 (95.1%) subjects (%) | Subjects with GPA rated Excellent (clean colon or small volume of clear liquid) (colon [5]; Total of all cohorts): 48 (66.7) subjects (%) | Subjects with GPA rated Fair (some semisolid stool suctioned or washed away) (colon [5]; Total of all cohorts): 8 (11.1) subjects (%) | Subjects with GPA rated Good (moderate to large volume of clear to semiclear liquid) (colon [5]; Total of all cohorts): 15 (20.8) subjects (%) | Subjects with GPA rated Poor (semisolid or solid stool unable to be suctioned or washed away) (colon [5]; Total of all cohorts): 1 (1.4) subjects (%) | Subjects who had a complete colonoscopy (endoscopist able to reach the cecum) (colon [5]; in each dose cohort (24 g/24 g, 36 g/36 g, 48 g/48 g)): 23 (95.8%) subjects (%) | Effect of food restriction on the metabolism of L-glucose ([6]; in vivo): no significant effect | Major route of L-glucose elimination ([6]; mice, rats, dogs, rabbits, and monkeys): urinary excretion | Subjects with colonoscopy preparation grade of excellent or good (colon [7]): 80% | Absorption from the human intestine [8]: moderately absorbed | Glucose or insulin response after administration ([8]; human): No significant glucose or insulin response | Lower gastrointestinal symptoms (cramping, gas/flatus), mild ([8]; human): occurred in a majority of subjects | Metabolism by colonic bacteria (breath hydrogen, comparable with in vitro studies) ([8]; human): colonic bacteria do not metabolize | Mild upper gastrointestinal symptoms (vomiting, nausea, belching/rifting, bloating) ([8]; human): occurred in a minority of subjects

OC[C@@H]1OC(O)[C@@H](O)[C@H](O)[C@H]1O (stereo partly drawn) [anhydrous L-glucose, reference compound]
Observations: clusters or clumping of solid ([1]; 5 min. delay): Material clumped into a hard mass during time | Observations: appearance of final solution ([1]; No delay): stirring. Clear solution results with latent
